According to PMC6717788 (The Korean Journal of Physiology & Pharmacology : …, 2019):

Columns and labels:
[1] = target: T1, Slo3 (potassium channel subfamily U member 1, KCNU1) (Homo sapiens, UniProt A8MYU2); test: whole-cell patch clamp, HEK293 cells, dose response; assay type: cell-based
T1 sequence (A8MYU2 1-1149): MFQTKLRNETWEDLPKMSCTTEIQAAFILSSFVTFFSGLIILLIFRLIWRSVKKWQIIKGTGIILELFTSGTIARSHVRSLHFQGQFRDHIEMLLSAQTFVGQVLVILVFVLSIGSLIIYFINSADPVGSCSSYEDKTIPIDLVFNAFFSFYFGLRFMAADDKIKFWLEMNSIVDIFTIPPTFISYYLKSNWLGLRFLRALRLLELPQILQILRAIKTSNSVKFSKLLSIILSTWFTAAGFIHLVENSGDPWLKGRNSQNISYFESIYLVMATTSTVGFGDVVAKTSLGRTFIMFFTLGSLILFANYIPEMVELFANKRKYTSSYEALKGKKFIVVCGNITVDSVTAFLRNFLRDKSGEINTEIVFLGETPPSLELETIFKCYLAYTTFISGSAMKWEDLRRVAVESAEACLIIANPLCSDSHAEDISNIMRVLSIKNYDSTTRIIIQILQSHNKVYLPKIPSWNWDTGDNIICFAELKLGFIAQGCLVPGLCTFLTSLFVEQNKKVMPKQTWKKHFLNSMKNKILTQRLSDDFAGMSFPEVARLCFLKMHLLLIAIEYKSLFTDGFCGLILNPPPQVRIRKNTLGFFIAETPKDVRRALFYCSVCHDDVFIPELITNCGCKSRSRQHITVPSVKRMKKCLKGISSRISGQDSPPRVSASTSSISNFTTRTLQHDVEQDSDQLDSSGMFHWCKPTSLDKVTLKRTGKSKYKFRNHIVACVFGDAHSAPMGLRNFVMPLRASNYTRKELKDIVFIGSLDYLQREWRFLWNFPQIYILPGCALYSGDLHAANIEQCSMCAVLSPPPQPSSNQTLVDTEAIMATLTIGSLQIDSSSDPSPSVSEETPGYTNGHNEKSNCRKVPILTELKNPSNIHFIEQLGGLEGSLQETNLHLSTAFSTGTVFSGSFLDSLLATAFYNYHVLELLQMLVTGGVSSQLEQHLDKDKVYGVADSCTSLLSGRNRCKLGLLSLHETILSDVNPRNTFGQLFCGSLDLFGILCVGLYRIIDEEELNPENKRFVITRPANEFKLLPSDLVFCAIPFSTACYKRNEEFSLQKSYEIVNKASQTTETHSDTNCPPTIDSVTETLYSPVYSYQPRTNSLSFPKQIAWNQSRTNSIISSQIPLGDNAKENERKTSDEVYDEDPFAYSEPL
T1 sequence (Q8N7C0 24-313 partner): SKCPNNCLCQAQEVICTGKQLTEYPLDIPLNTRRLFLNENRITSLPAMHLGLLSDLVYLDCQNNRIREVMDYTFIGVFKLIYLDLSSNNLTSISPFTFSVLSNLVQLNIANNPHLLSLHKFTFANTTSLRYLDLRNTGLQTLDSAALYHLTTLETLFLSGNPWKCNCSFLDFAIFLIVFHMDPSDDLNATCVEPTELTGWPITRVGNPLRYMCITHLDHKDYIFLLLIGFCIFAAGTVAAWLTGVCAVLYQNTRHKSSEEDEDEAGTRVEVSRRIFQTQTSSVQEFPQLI

[2] = target: T1, Slo3 (potassium channel subfamily U member 1, KCNU1); test: whole-cell patch clamp, HEK293 cells, […] single dose; assay type: cell-based; conditions: HEK293, read-out: % inhibition at 50 μM

SMILES	EC50 [1] [µM]	inhibition at 50 µM [2] [%]
O=c1c(O)c(-c2ccc(O)c(O)c2)oc2cc(O)cc(O)c12 [quercetin]	11.3	–
O=c1cc(-c2ccc(O)c(O)c2)oc2cc(O)cc(O)c12 [luteolin]	–	53.5 ± 3.15
O=c1c(O)c(-c2ccc(O)cc2O)oc2cc(O)cc(O)c12 [morin]	–	42.1 ± 2.16
